Data as given in ChEMBL document CHEMBL1201861, “Genomics of Drug Sensitity in Cancer screening data, Wellcome Trust Sanger Institute”.

What was measured:
Test in all cases: cells
Conditions in all cases: Homo sapiens
COR-L23 = assay type: functional, cell-based;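 note: cell viability assay measuring how strongly compounds suppress growth of COR-L23 cells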
Description: SANGER: Inhibition of human COR-L23 cell growth in a cell viability assay.

ChaGo-K-1 = assay type: functional, cell-based;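 note: growth inhibition of ChaGo-K-1 cells, read out with a cell viability assay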
Description: SANGER: Inhibition of human ChaGo-K-1 cell growth in a cell viability assay.

DU-145 = assay type: functional, cell-based
Description: SANGER: Inhibition of human DU-145 cell growth in a cell viability assay.

EFM-19 = assay type: functional, cell-based;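 note: growth inhibition of human EFM-19 cells, measured in a cell viability assay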
Description: SANGER: Inhibition of human EFM-19 cell growth in a cell viability assay.

EFO-27 = assay type: functional, cell-based;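 note: growth inhibition of EFO-27 cells, read out with a cell viability assay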
Description: SANGER: Inhibition of human EFO-27 cell growth in a cell viability assay.

G-401 = assay type: functional, cell-based
Description: SANGER: Inhibition of human G-401 cell growth in a cell viability assay.

GCT = assay type: functional, cell-based;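 note: GCT cell line proliferation inhibition, read out with a cell viability assay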
Description: SANGER: Inhibition of human GCT cell growth in a cell viability assay.

GMS-10 = assay type: functional, cell-based;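 note: growth inhibition of GMS-10 cells, read out as cell viability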
Description: SANGER: Inhibition of human GMS-10 cell growth in a cell viability assay.

H4 = assay type: functional, cell-based
Description: SANGER: Inhibition of human H4 cell growth in a cell viability assay.

HCC1419 = assay type: functional, cell-based;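 note: growth inhibition of human HCC1419 cells, read out as cell viability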
Description: SANGER: Inhibition of human HCC1419 cell growth in a cell viability assay.

HCT-116 = assay type: functional, cell-based
Description: SANGER: Inhibition of human HCT-116 cell growth in a cell viability assay.

HCT-15 = assay type: functional, cell-based;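 note: cell viability readout, IC50 reflecting suppression of HCT-15 cell growth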
Description: SANGER: Inhibition of human HCT-15 cell growth in a cell viability assay.

HOP-92 = assay type: functional, cell-based;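 note: cell viability readout, with IC50 reflecting inhibition of HOP-92 cell growth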
Description: SANGER: Inhibition of human HOP-92 cell growth in a cell viability assay.

HT-3 = assay type: functional, cell-based;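 note: growth inhibition measured with a cell viability readout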
Description: SANGER: Inhibition of human HT-3 cell growth in a cell viability assay.

HuO-3N1 = assay type: functional, cell-based;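 note: cell viability readout used to measure how strongly compounds suppress proliferation of human HuO-3N1 cells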
Description: SANGER: Inhibition of human HuO-3N1 cell growth in a cell viability assay.

KYSE-410 = assay type: functional, cell-based;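 note: growth inhibition of KYSE-410 cells, measured through a cell viability readout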
Description: SANGER: Inhibition of human KYSE-410 cell growth in a cell viability assay.

MDA-MB-361 = assay type: functional, cell-based
ME-180 = assay type: functional, cell-based;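 note: cell viability assay measuring growth inhibition of ME-180 cells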
Description: SANGER: Inhibition of human ME-180 cell growth in a cell viability assay.

MEL-HO = assay type: functional, cell-based
Description: SANGER: Inhibition of human MEL-HO cell growth in a cell viability assay.

MKN-1 = assay type: functional, cell-based;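 note: growth inhibition of human MKN1 cells, read out by a cell viability measurement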
Description: SANGER: Inhibition of human MKN1 cell growth in a cell viability assay.

NCI-H2052 = assay type: functional, cell-based;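 note: growth inhibition of NCI-H2052 cells, read out with a cell viability assay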
Description: SANGER: Inhibition of human NCI-H2052 cell growth in a cell viability assay.

NCI-H2342 = assay type: functional, cell-based;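 note: growth inhibition of the cancer cell line, determined with a cell viability assay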
Description: SANGER: Inhibition of human NCI-H2342 cell growth in a cell viability assay.

NCI-H28 = assay type: functional, cell-based;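 note: growth inhibition of human NCI-H28 cells, read out as cell viability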
Description: SANGER: Inhibition of human NCI-H28 cell growth in a cell viability assay.

NCI-H292 = assay type: functional, cell-based;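 note: growth inhibition of NCI-H292 cells, read out with a cell viability assay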
Description: SANGER: Inhibition of human NCI-H292 cell growth in a cell viability assay.

NCI-H810 = assay type: functional, cell-based;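 note: IC50 reflects inhibition of cancer cell line growth, read out with a cell viability assay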
Description: SANGER: Inhibition of human NCI-H810 cell growth in a cell viability assay.

PANC-08-13 = assay type: functional, cell-based;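 note: cell growth inhibition, measured with a cell viability assay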
Description: SANGER: Inhibition of human PANC-08-13 cell growth in a cell viability assay.

RO82-W-1 = assay type: functional, cell-based;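 note: growth inhibition of human RO82-W-1 cells, measured with a cell viability assay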
Description: SANGER: Inhibition of human RO82-W-1 cell growth in a cell viability assay.

RT-112 = assay type: functional, cell-based
Description: SANGER: Inhibition of human RT-112 cell growth in a cell viability assay.

SCC-9 = assay type: functional, cell-based;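 note: Read-out is a cell viability assay, with values giving inhibition of cell growth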
Description: SANGER: Inhibition of human SCC-9 cell growth in a cell viability assay.

SF-295 = assay type: functional, cell-based;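 note: growth inhibition of SF-295 cells, read out with a cell viability assay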
Description: SANGER: Inhibition of human SF295 cell growth in a cell viability assay.

SK-MEL-28 = assay type: functional, cell-based;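 note: growth inhibition of human SK-MEL-28 cells, read out with a cell viability assay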
Description: SANGER: Inhibition of human SK-MEL-28 cell growth in a cell viability assay.

SK-MEL3 = assay type: functional, cell-based, SK-MEL-3;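 note: growth inhibition of human SK-MEL-3 cells, read out with a cell viability assay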
Description: SANGER: Inhibition of human SK-MEL-3 cell growth in a cell viability assay.

SW1088 = assay type: functional, cell-based;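 note: growth inhibition of human SW1088 cells, read out by a cell viability assay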
Description: SANGER: Inhibition of human SW1088 cell growth in a cell viability assay.

SW48 = assay type: functional, cell-based;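 note: growth inhibition of SW48 cells, read out with a cell viability assay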
Description: SANGER: Inhibition of human SW48 cell growth in a cell viability assay.

SW626 = assay type: functional, cell-based;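 note: growth inhibition of SW626 cells, measured with a cell viability assay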
Description: SANGER: Inhibition of human SW626 cell growth in a cell viability assay.

SW756 = assay type: functional, cell-based;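 note: growth inhibition of human SW756 cells, read out with a cell viability assay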
Description: SANGER: Inhibition of human SW756 cell growth in a cell viability assay.

SW780 = assay type: functional, cell-based;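 note: growth inhibition of the cells, read out with a cell viability assay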
Description: SANGER: Inhibition of human SW780 cell growth in a cell viability assay.

SW837 = assay type: functional, cell-based;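 note: growth inhibition of SW837 cells, determined with a cell viability assay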
Description: SANGER: Inhibition of human SW837 cell growth in a cell viability assay.

8505C = assay type: functional, cell-based
Description: SANGER: Inhibition of human 8505C cell growth in a cell viability assay.

A253 cell line = assay type: functional, cell-based;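 note: growth inhibition of A253 cells, read out with a cell viability assay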
Description: SANGER: Inhibition of human A253 cell growth in a cell viability assay.

BPH-1 = assay type: functional, cell-based;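 note: cell viability assay measuring growth inhibition of human BPH-1 cells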
Description: SANGER: Inhibition of human BPH-1 cell growth in a cell viability assay.

CAL-27 = assay type: functional, cell-based;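 note: Viability-based readout, IC50 reflecting inhibition of CAL-27 cell growth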
Description: SANGER: Inhibition of human CAL-27 cell growth in a cell viability assay.

U2OS = assay type: functional, cell-based, U-2-OS;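 note: growth inhibition of human U-2-OS cells, determined with a cell viability assay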
Description: SANGER: Inhibition of human U-2-OS cell growth in a cell viability assay.

UACC-62 = assay type: functional, cell-based;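 note: growth inhibition of human UACC-62 cells, read out by a cell viability assay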
Description: SANGER: Inhibition of human UACC-62 cell growth in a cell viability assay.

UMUC3 = assay type: functional, cell-based;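 note: growth inhibition of human UM-UC-3 cells, read out with a cell viability assay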
Description: SANGER: Inhibition of human UM-UC-3 cell growth in a cell viability assay.

YKG-1 = assay type: functional, cell-based;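 note: cell growth inhibition, read out with a viability assay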
Description: SANGER: Inhibition of human YKG-1 cell growth in a cell viability assay.

SMILES: CCCS(=O)(=O)Nc1ccc(F)c(C(=O)c2c[nH]c3ncc(Cl)cc23)c1F [PLX-4720]
- IC50 (COR-L23): > 10000 nM
- IC50 (ChaGo-K-1): > 10000 nM
- IC50 (DU-145): > 10000 nM
- IC50 (EFM-19): > 10000 nM
- IC50 (EFO-27): > 10000 nM
- IC50 (G-401): > 10000 nM
- IC50 (GCT): 8750 nM
- IC50 (GMS-10): > 10000 nM
- IC50 (H4): 6220 nM
- IC50 (HCC1419): > 10000 nM
- IC50 (HCT-116): > 10000 nM
- IC50 (HCT-15): > 10000 nM
- IC50 (HOP-92): > 10000 nM
- IC50 (HT-3): > 10000 nM
- IC50 (HuO-3N1): 2880 nM
- IC50 (KYSE-410): > 10000 nM
- IC50 (MDA-MB-361): > 10000 nM
- IC50 (ME-180): > 10000 nM
- IC50 (MEL-HO): 412 nM
- IC50 (MKN-1): > 10000 nM
- IC50 (NCI-H2052): > 10000 nM
- IC50 (NCI-H2342): > 10000 nM
- IC50 (NCI-H28): > 10000 nM
- IC50 (NCI-H292): > 10000 nM
- IC50 (NCI-H810): > 10000 nM
- IC50 (PANC-08-13): > 10000 nM
- IC50 (RO82-W-1): > 10000 nM
- IC50 (RT-112): > 10000 nM
- IC50 (SCC-9): > 10000 nM
- IC50 (SF-295): > 10000 nM
- IC50 (SK-MEL-28): 1050 nM
- IC50 (SK-MEL3): 516 nM
- IC50 (SW1088): > 10000 nM
- IC50 (SW48): > 10000 nM
- IC50 (SW626): > 10000 nM
- IC50 (SW756): > 10000 nM
- IC50 (SW780): > 10000 nM
- IC50 (SW837): > 10000 nM
- IC50 (8505C): > 10000 nM
- IC50 (A253 cell line): > 10000 nM
- IC50 (BPH-1): > 10000 nM
- IC50 (CAL-27): > 10000 nM
- IC50 (U2OS): > 10000 nM
- IC50 (UACC-62): > 10000 nM
- IC50 (UMUC3): > 10000 nM
- IC50 (YKG-1): > 10000 nM

SMILES: C[C@]1(c2nc3c(C(N)=O)cccc3[nH]2)CCCN1 [VELIPARIB]
- IC50 (COR-L23): > 5000 nM
- IC50 (ChaGo-K-1): > 5000 nM
- IC50 (DU-145): > 5000 nM
- IC50 (EFM-19): > 5000 nM
- IC50 (EFO-27): > 5000 nM
- IC50 (G-401): > 5000 nM
- IC50 (GCT): > 5000 nM
- IC50 (GMS-10): > 5000 nM
- IC50 (H4): > 5000 nM
- IC50 (HCC1419): > 5000 nM
- IC50 (HCT-116): > 5000 nM
- IC50 (HCT-15): > 5000 nM
- IC50 (HOP-92): > 5000 nM
- IC50 (HT-3): > 5000 nM
- IC50 (HuO-3N1): > 5000 nM
- IC50 (KYSE-410): > 5000 nM
- IC50 (MDA-MB-361): > 5000 nM
- IC50 (ME-180): > 5000 nM
- IC50 (MEL-HO): > 5000 nM
- IC50 (MKN-1): > 5000 nM
- IC50 (NCI-H2052): > 5000 nM
- IC50 (NCI-H2342): > 5000 nM
- IC50 (NCI-H28): > 5000 nM
- IC50 (NCI-H292): > 5000 nM
- IC50 (NCI-H810): > 5000 nM
- IC50 (PANC-08-13): > 5000 nM
- IC50 (RO82-W-1): > 5000 nM
- IC50 (RT-112): > 5000 nM
- IC50 (SCC-9): > 5000 nM
- IC50 (SF-295): > 5000 nM
- IC50 (SK-MEL-28): > 5000 nM
- IC50 (SK-MEL3): > 5000 nM
- IC50 (SW1088): > 5000 nM
- IC50 (SW48): > 5000 nM
- IC50 (SW626): > 5000 nM
- IC50 (SW756): > 5000 nM
- IC50 (SW780): > 5000 nM
- IC50 (SW837): > 5000 nM
- IC50 (8505C): > 5000 nM
- IC50 (BPH-1): > 5000 nM
- IC50 (CAL-27): > 5000 nM
- IC50 (U2OS): > 5000 nM
- IC50 (UACC-62): > 5000 nM
- IC50 (UMUC3): > 5000 nM
- IC50 (YKG-1): > 5000 nM

SMILES: CC[C@]1(O)C[C@@H]2CN(CCc3c([nH]c4ccccc34)[C@@](C(=O)OC)(c3cc4c(cc3OC)N(C)[C@H]3[C@@](O)(C(=O)OC)[C@H](OC(C)=O)[C@]5(CC)C=CCN6CC[C@]43[C@@H]65)C2)C1 [VINBLASTINE]
- IC50 (COR-L23): 3.62 nM
- IC50 (ChaGo-K-1): 1.01 nM
- IC50 (DU-145): 98.7 nM
- IC50 (EFM-19): 5.24 nM
- IC50 (EFO-27): 7.45 nM
- IC50 (G-401): 8.67 nM
- IC50 (GCT): 4.73 nM
- IC50 (GMS-10): 11.3 nM
- IC50 (H4): 5.84 nM
- IC50 (HCC1419): 57.2 nM
- IC50 (HCT-116): 3.63 nM
- IC50 (HCT-15): 78.6 nM
- IC50 (HOP-92): 25.9 nM
- IC50 (HT-3): 37.1 nM
- IC50 (HuO-3N1): 4.83 nM
- IC50 (KYSE-410): 9.3 nM
- IC50 (MDA-MB-361): 1.66 nM
- IC50 (ME-180): 4.47 nM
- IC50 (MEL-HO): 53.9 nM
- IC50 (MKN-1): 10.1 nM
- IC50 (NCI-H2052): 24.6 nM
- IC50 (NCI-H2342): > 100 nM
- IC50 (NCI-H28): 34.3 nM
- IC50 (NCI-H292): 3.03 nM
- IC50 (NCI-H810): 68.7 nM
- IC50 (PANC-08-13): 61.5 nM
- IC50 (RO82-W-1): 5.57 nM
- IC50 (RT-112): 2.71 nM
- IC50 (SCC-9): 10.7 nM
- IC50 (SF-295): 36.3 nM
- IC50 (SK-MEL-28): 17 nM
- IC50 (SK-MEL3): > 100 nM
- IC50 (SW1088): 17 nM
- IC50 (SW48): 6.94 nM
- IC50 (SW626): 23.2 nM
- IC50 (SW756): 14.7 nM
- IC50 (SW780): 2.33 nM
- IC50 (SW837): > 100 nM
- IC50 (8505C): 3.11 nM
- IC50 (BPH-1): 3.26 nM
- IC50 (CAL-27): 2.09 nM
- IC50 (U2OS): 25.7 nM
- IC50 (UACC-62): 8.06 nM
- IC50 (UMUC3): 5.11 nM
- IC50 (YKG-1): 5.53 nM
